According to US20250179061A1 (SIRONAX LTD., priority 2022, published 2025):
pIC50: −log10 of the molar value. Where two headings read alike, the source gives them in different places.

Test system: HT-29 cells
Assay: HT-29 necroptosis cell viability assay (TNF-α/SMAC mimetic/zVAD-FMK, CellTiter-Glo)
Type: cell-based
Details: Homo sapiens
Summary of the method: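 Necroptosis was triggered by TNF-α (10 ng/ml), SMAC mimetic (6 μM) and zVAD-FMK (10 μM) in serum-free medium during 20 h compound exposure (10 concentrations, threefold steps) of HT-29 cells. IC50 from duplicate dose-responses uses CellTiter-Glo ATP luminescence as viability read-out.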

[1] = HT-29, HT-29 necroptosis cell viability assay, class symbols for IC50, read-out: Activity
[2] = HT-29, HT-29 necroptosis cell viability, IC50 class symbols, read-out: Activity
[3] = HT-29, HT-29 cells, necroptosis induced by TNF-α/SMAC mimetic/zVAD-FMK, CellTiter-Glo, read-out: Activity (IC50 class)
[4] = HT-29 cells stimulated with TNF-α (10 ng/ml), SMAC mimetic (6 μM) and zVAD-FMK (10 μM), 20 hours, CellTiter-Glo ATP luminescence, geometric mean IC50 from 10 points, read-out: Activity

| Structure (SMILES) | pIC50 [1] | pIC50 [2] | also measured |
| --- | --- | --- | --- |
| Cc1nc(N)sc1S(=O)(=O)c1ccc(-n2ncn(Cc3ccccc3)c2=O)cc1 [Example 627, 2-(4-((2-amino-4-methylthiazol-5-yl)sulfonyl)phenyl)-4-benzyl-2,4-dihydro-3H-1,2,4-triazol-3-one] | 6.00 to 7.00 |  |  |
| N#CC1(F)CN(c2cc(Oc3ccc(-n4ncn(Cc5c(F)cccc5F)c4=O)cc3)ccn2)C1 [Example 252, 1-(4-(4-(4-(2,6-difluorobenzyl)-5-oxo-4,5-dihydro-1H-1,2,4-triazol-1-yl)phenoxy)pyridin-2-yl)-3-fluoroazetidine-3-carbonitrile] |  | 6.00 to 7.00 |  |
| Cc1cnc(Cl)cc1Oc1ccc(-n2ncn(Cc3c(F)cccc3F)c2=O)cc1Cl [Example 290, 2-(3-chloro-4-((2-chloro-5-methylpyridin-4-yl)oxy)phenyl)-4-(2,6-difluorobenzyl)-2,4-dihydro-3H-1,2,4-triazol-3-one] |  | > 7.00 |  |
| CCOC1CN(c2nccc(Cl)c2Oc2ccc(-n3nc(C)n(Cc4ccccc4)c3=O)cc2)C1 [Example 305, 4-benzyl-2-[4-[[4-chloro-2-(3-ethoxyazetidin-1-yl)-3-pyridyl]oxy]phenyl]-5-methyl-1,2,4-triazol-3-one] |  | 6.00 to 7.00 |  |
| CN(C)c1ccccc1Oc1ccc(-n2nc(Cl)n(Cc3ccccc3)c2=O)cc1 [Example 677, 4-benzyl-5-chloro-2-(4-(2-(dimethylamino)phenoxy)phenyl)-2,4-dihydro-3H-1,2,4-triazol-3-one] |  |  | pIC50 [3]: 6.00 to 7.00 |
| Cc1nc(N2CCOCC2)sc1Oc1ccc(-n2ncn(Cc3c(F)cccc3F)c2=O)cc1F [Example 295, 4-(2,6-difluorobenzyl)-2-(3-fluoro-4-((4-methyl-2-morpholinothiazol-5-yl)oxy)phenyl)-2,4-dihydro-3H-1,2,4-triazol-3-one] |  | > 7.00 |  |
| Cc1c(N2CC(C)(NC(=O)OC(C)(C)C)C2)ncn1Cc1ccc(-n2ncn(Cc3c(F)cccc3F)c2=O)cc1 [Example 538, tert-butyl (1-(1-(4-(4-(2,6-difluorobenzyl)-5-oxo-4,5-dihydro-1H-1,2,4-triazol-1-yl)benzyl)-5-methyl-1H-imidazol-4-yl)-3-methylazetidin-3-yl)carbamate] | > 7.00 |  |  |
| CCOC(=O)c1nc(COc2ccc(-n3ncn(Cc4c(F)cccc4F)c3=O)cc2F)cs1 [Example 654, Ethyl 4-((4-(4-(2,6-difluorobenzyl)-5-oxo-4,5-dihydro-1H-1,2,4-triazol-1-yl)-2-fluorophenoxy)methyl)thiazole-2-carboxylate] |  |  | pIC50 [3]: 5.00 to 6.00 |
| Cc1sc(CCO)nc1Oc1ccc(-n2ncn(Cc3c(F)cccc3F)c2=O)cc1F [Example 652, 4-[(2,6-difluorophenyl)methyl]-2-[3-fluoro-4-[2-(2-hydroxyethyl)-5-methyl-thiazol-4-yl]oxy-phenyl]-1,2,4-triazol-3-one] |  |  | pIC50 (HT-29, read-out: Activity (IC50 class)): 6.00 to 7.00 |
| CC(C)(C)Nc1cc(Oc2ccc(-n3ncn(Cc4c(F)cccc4F)c3=O)cc2)ccn1 [Example 387, 2-(4-((2-(tert-butylamino)pyridin-4-yl)oxy)phenyl)-4-(2,6-difluorobenzyl)-2,4-dihydro-3H-1,2,4-triazol-3-one] |  | 6.00 to 7.00 |  |
| Cc1cc(Oc2ccc(-n3ncn(Cc4c(F)cccc4F)c3=O)cc2F)n(C)n1 [Example 172, 4-(2,6-difluorobenzyl)-2-(4-((1,3-dimethyl-1H-pyrazol-5-yl)oxy)-3-fluorophenyl)-2,4-dihydro-3H-1,2,4-triazol-3-one] | > 7.00 |  |  |
| Cc1nc(C(C)(C)O)sc1Oc1ccc(-n2ncn(Cc3c(F)cccc3F)c2=O)cc1F [Example 462, 4-(2,6-difluorobenzyl)-2-(3-fluoro-4-((2-(2-hydroxypropan-2-yl)-4-methylthiazol-5-yl)oxy)phenyl)-2,4-dihydro-3H-1,2,4-triazol-3-one] |  | > 7.00 |  |
| Cc1nc(N2CC(C)(N)C2)sc1Cc1ccc(-n2ncn(Cc3c(F)cccc3F)c2=O)cc1 [Example 509, 2-(4-((2-(3-amino-3-methylazetidin-1-yl)-4-methylthiazol-5-yl)methyl)phenyl)-4-(2,6-difluorobenzyl)-2,4-dihydro-3H-1,2,4-triazol-3-one] | > 7.00 |  |  |
| Cc1nc(C#N)sc1Oc1ccc(-n2ncn(Cc3cnccc3Cl)c2=O)cc1F [Example 38, 5-(4-(4-((4-chloropyridin-3-yl)methyl)-5-oxo-4,5-dihydro-1H-1,2,4-triazol-1-yl)-2-fluorophenoxy)-4-methylthiazole-2-carbonitrile] |  |  | pIC50 [4]: > 7.00 |
| CCOC(=O)c1nn(Cc2ccc(-n3ncn(Cc4c(F)cccc4F)c3=O)cc2F)c(C)c1C [Example 202, ethyl 1-(4-(4-(2,6-difluorobenzyl)-5-oxo-4,5-dihydro-1H-1,2,4-triazol-1-yl)-2-fluorobenzyl)-4,5-dimethyl-1H-pyrazole-3-carboxylate] | > 7.00 |  |  |
| CCOC1CN(c2nccc(Oc3ccc(-n4ncn(Cc5c(F)cccc5F)c4=O)cc3)c2F)C1 [Example 355, 4-(2,6-difluorobenzyl)-2-(4-((2-(3-ethoxyazetidin-1-yl)-3-fluoropyridin-4-yl)oxy)phenyl)-2,4-dihydro-3H-1,2,4-triazol-3-one] |  | > 7.00 |  |
| Cc1nc(C(=O)N2CC(C#N)C2)sc1Oc1ccc(-n2ncn(Cc3ccccc3F)c2=O)cc1F [Example 592, 1-(5-(2-fluoro-4-(4-(2-fluorobenzyl)-5-oxo-4,5-dihydro-1H-1,2,4-triazol-1-yl)phenoxy)-4-methylthiazole-2-carbonyl)azetidine-3-carbonitrile] | > 7.00 |  |  |
| Cc1nc(C(N)=O)sc1Oc1ccc(-n2nc3n(c2=O)C(c2ccccc2)CC3F)cc1F (stereo not drawn) [Example 81, 5-(2-fluoro-4-(7-fluoro-3-oxo-5-phenyl-3,5,6,7-tetrahydro-2H-pyrrolo[2,1-c][1,2,4]triazol-2-yl)phenoxy)-4-methylthiazole-2-carboxamide] |  |  | pIC50 [4]: > 7.00 |
| Cc1nc(C#N)sc1Oc1ccc(-n2ncn(Cc3c(F)cccc3C#N)c2=O)cc1F [Example 571, 5-(4-(4-(2-cyano-6-fluorobenzyl)-5-oxo-4,5-dihydro-1H-1,2,4-triazol-1-yl)-2-fluorophenoxy)-4-methylthiazole-2-carbonitrile] | > 7.00 |  |  |
| CCOC1(C)CN(c2cc(Oc3ccc(-n4ncn(Cc5c(F)cccc5Cl)c4=O)cc3)ccn2)C1 [Example 489, 4-(2-chloro-6-fluorobenzyl)-2-(4-((2-(3-ethoxy-3-methylazetidin-1-yl)pyridin-4-yl)oxy)phenyl)-2,4-dihydro-3H-1,2,4-triazol-3-one] | 6.00 to 7.00 |  |  |
| N#CC1(CO)CN(c2cc(Oc3ccc(-n4ncn(Cc5c(F)cccc5F)c4=O)cc3)ccn2)C1 [Example 278, 1-(4-(4-(4-(2,6-difluorobenzyl)-5-oxo-4,5-dihydro-1H-1,2,4-triazol-1-yl)phenoxy)pyridin-2-yl)-3-(hydroxymethyl)azetidine-3-carbonitrile] |  | 6.00 to 7.00 |  |
| CCOC1(C)CN(c2nccc(Oc3ccc(-n4ncn(Cc5c(F)cccc5F)c4=O)cc3Cl)c2Cl)C1 [Example 503, 2-(3-chloro-4-((3-chloro-2-(3-ethoxy-3-methylazetidin-1-yl)pyridin-4-yl)oxy)phenyl)-4-(2,6-difluorobenzyl)-2,4-dihydro-3H-1,2,4-triazol-3-one] | > 7.00 |  |  |
| CC(=O)c1nc(C)c(Oc2ccc(-n3ncn(Cc4c(F)cccc4F)c3=O)cc2F)n1C [Example 174, 2-(4-((2-acetyl-1,4-dimethyl-1H-imidazol-5-yl)oxy)-3-fluorophenyl)-4-(2,6-difluorobenzyl)-2,4-dihydro-3H-1,2,4-triazol-3-one] | > 7.00 |  |  |
| Cc1nc(C2(N)CC2)sc1Oc1ccc(-n2ncn(Cc3c(F)cccc3F)c2=O)cc1F [Example 613, 2-(4-((2-(1-aminocyclopropyl)-4-methylthiazol-5-yl)oxy)-3-fluorophenyl)-4-(2,6-difluorobenzyl)-2,4-dihydro-3H-1,2,4-triazol-3-one] | > 7.00 |  |  |
| Cc1nc(C(=O)NN)sc1Oc1ccc(-n2ncn(Cc3ccccc3F)c2=O)cc1F [Example 596, 5-(2-fluoro-4-(4-(2-fluorobenzyl)-5-oxo-4,5-dihydro-1H-1,2,4-triazol-1-yl)phenoxy)-4-methylthiazole-2-carbohydrazide] | > 7.00 |  |  |
| C[C@H]1[C@@H](O)CN1c1cc(Oc2ccc(-n3ncn(Cc4c(F)cccc4F)c3=O)cc2F)c(F)cn1 [Example 448, 4-(2,6-difluorobenzyl)-2-(3-fluoro-4-((5-fluoro-2-((2S,3S)-3-hydroxy-2-methylazetidin-1-yl)pyridin-4-yl)oxy)phenyl)-2,4-dihydro-3H-1,2,4-triazol-3-one] |  | > 7.00 |  |
| Cc1nc(C(N)=O)oc1Oc1ccc(-n2nc3n(c2=O)[C@H](c2c(F)cccc2F)CC3)cc1F (single isomer, unassigned) [Example 701] |  |  | pIC50 [4]: > 7.00 |
| Cc1nc(C(=O)NCC2COC2)sc1Oc1ccc(-n2ncn(Cc3ccccc3F)c2=O)cc1F [Example 604, 5-(2-fluoro-4-(4-(2-fluorobenzyl)-5-oxo-4,5-dihydro-1H-1,2,4-triazol-1-yl)phenoxy)-4-methyl-N-(oxetan-3-ylmethyl)thiazole-2-carboxamide] | > 7.00 |  |  |
| NC(=O)c1cnc(Oc2ccc(-n3ncn(Cc4c(F)cccc4F)c3=O)cc2)s1 [Example 82, 2-(4-(4-(2,6-difluorobenzyl)-5-oxo-4,5-dihydro-1H-1,2,4-triazol-1-yl)phenoxy)thiazole-5-carboxamide] |  |  | pIC50 [4]: 6.00 to 7.00 |
| NC1CN(c2cc(Oc3ccc(-n4ncn(Cc5c(F)cccc5F)c4=O)cc3)ccn2)C1 [Example 322, 2-(4-((2-(3-aminoazetidin-1-yl)pyridin-4-yl)oxy)phenyl)-4-(2,6-difluorobenzyl)-2,4-dihydro-3H-1,2,4-triazol-3-one] |  | 6.00 to 7.00 |  |
